Measured values from patent publication US20260347373A1, “HETEROCYCLIC COMPOUNDS, COMPOSITIONS THEREOF, AND METHODS OF TREATMENT THEREWITH” (BeOne Medicines I GmbH, priority 2023, published 2026).
Structures can show the parent of a compound that is named as a salt.

Tests used:
WT KRAS = WT KRAS (Homo sapiens, UniProt P01116); test: KRAS WT Probe Displacement Assay (TR-FRET, GDP-loaded); format: binding; conditions: KRAS WT, read-out: KRAS^WT Probe Displacement Assay IC50
Source text: (§1) The synthetic routes of probe 1 and 2, which have been disclosed in PCT/CN2022/070676, are hereby incorporated herein.

KRAS G12D = KRAS G12D (Homo sapiens, UniProt P01116, G12D); test: KRAS G12D Probe Displacement Assay (TR-FRET, GDP-loaded); format: binding; conditions: KRAS G12D, read-out: KRAS^G12D Probe Displacement Assay IC50
Source text: as §1

Sequence of KRAS G12D (P01116 1-188 isoform P01116-2 G12D): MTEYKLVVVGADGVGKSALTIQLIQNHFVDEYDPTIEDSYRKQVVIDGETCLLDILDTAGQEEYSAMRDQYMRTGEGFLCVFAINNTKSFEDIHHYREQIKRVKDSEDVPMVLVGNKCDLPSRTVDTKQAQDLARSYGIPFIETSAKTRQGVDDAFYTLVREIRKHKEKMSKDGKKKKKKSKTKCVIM
Sequence of WT KRAS (P01116 1-188 isoform P01116-2): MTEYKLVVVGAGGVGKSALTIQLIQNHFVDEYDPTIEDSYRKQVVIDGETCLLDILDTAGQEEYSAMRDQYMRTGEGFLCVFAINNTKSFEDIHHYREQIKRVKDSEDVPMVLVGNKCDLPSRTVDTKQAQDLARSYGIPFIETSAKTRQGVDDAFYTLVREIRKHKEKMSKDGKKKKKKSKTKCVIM

SMILES | IC50 (WT KRAS) | IC50 (KRAS G12D)
Cc1cc(N)cc(-c2nc3c4c(nc(OCC5(C)CC(F)CN(C6CCOCC6)C5)nc4c2F)N2C[C@H]4CC[C@H](N4)[C@H]2CCO3)c1C(F)(F)F (single isomer, unassigned) [Example 235] | 3 to 1000 nM | 0.3 to 3 nM
Cc1cc(N)cc(-c2nc3c4c(nc(OCC5(C)CN(C)CC/C5=C\F)nc4c2F)N2C[C@H]4CC[C@H](N4)[C@H]2CCO3)c1C(F)(F)F (single isomer, unassigned) [Example 236] | 3 to 1000 nM | < 0.3 nM
Cc1cc(N)cc(-c2nc3c4c(nc(OCC5(C)CN(CC6CC6)CC/C5=C\F)nc4c2F)N2C[C@H]4CC[C@H](N4)[C@H]2CCO3)c1C(F)(F)F (single isomer, unassigned) [Example 238] | 3 to 1000 nM | < 0.3 nM
[2H]C([2H])([2H])N1CCC(C(F)F)C(C)(C([2H])([2H])Oc2nc3c4c(nc(-c5cc(N)cc(C)c5C(F)(F)F)c(F)c4n2)OCC[C@@H]2[C@@H]4CC[C@H](CN32)N4)C1 (single isomer, unassigned) [Example 240] | 3 to 1000 nM | 0.3 to 3 nM
[2H]C([2H])([2H])N1CCC(C(F)F)C(C)(C([2H])([2H])Oc2nc3c4c(nc(-c5cc(N)cc(C)c5C(F)(F)F)c(F)c4n2)OCC[C@@H]2[C@@H]4CC[C@H](CN32)N4)C1 (single isomer, unassigned) [Example 241] | 0.3 to 3 nM | < 0.3 nM
[2H]C([2H])([2H])N1CC/C(=C\F)C(C)(C([2H])([2H])Oc2nc3c4c(nc(-c5cc(N)cc(C)c5C(F)(F)F)c(F)c4n2)OCC[C@@H]2[C@@H]4CC[C@H](CN32)N4)C1 (single isomer, unassigned) [Example 242] | 3 to 1000 nM | < 0.3 nM
Cc1cc(N)cc(-c2nc3c4c(nc(OCC5(C)CN(C)CCC5C(F)F)nc4c2F)N2C[C@H]4CC[C@H](N4)[C@H]2CCO3)c1C(F)(F)F (single isomer, unassigned) [Example 244] | 3 to 1000 nM | 0.3 to 3 nM
Cc1cc(N)cc(-c2nc3c4c(nc(OCC5(C)CN(C)CCC5C(F)F)nc4c2F)N2C[C@H]4CC[C@H](N4)[C@H]2CCO3)c1C(F)(F)F (single isomer, unassigned) [Example 245] | 0.3 to 3 nM | < 0.3 nM
[2H]C([2H])([2H])N1CCC(C(F)F)C(C)(C([2H])([2H])Oc2nc3c4c(nc(-c5cc(N)cc(Cl)c5C(F)(F)F)c(F)c4n2)OCC[C@@H]2[C@@H]4CC[C@H](CN32)N4)C1 (single isomer, unassigned) [Example 246] | 3 to 1000 nM | 0.3 to 3 nM
[2H]C([2H])([2H])N1CCC(C(F)F)C(C)(C([2H])([2H])Oc2nc3c4c(nc(-c5cc(N)cc(Cl)c5C(F)(F)F)c(F)c4n2)OCC[C@@H]2[C@@H]4CC[C@H](CN32)N4)C1 (single isomer, unassigned) [Example 247] | 0.3 to 3 nM | < 0.3 nM
Cc1cc(N)cc(-c2nc3c4c(nc(OC[C@]5(CN(C)C)CC5(F)F)nc4c2F)N2C[C@H]4CC[C@H](N4)[C@H]2CC(C)O3)c1C(F)(F)F (single isomer, unassigned) [Example 248] | 0.3 to 3 nM | < 0.3 nM
Cc1cc(N)cc(-c2nc3c4c(nc(OCC5(CN6C[C@H](O)[C@@H](F)C6)CC5)nc4c2F)N2C[C@H]4CC[C@H](N4)[C@H]2CCO3)c1C(F)(F)F (stereo in doubt) [Example 94, trans-1-((1-((((6aR, 7S,10R)-2-(5-amino-3-methyl-2-(trifluoromethyl)phenyl)-1-fluoro-5,6,6a,7,8,9,10,11-octahydro-4-oxa-3,11a,12,14,15-pentaaza-7,10-methanocyclohepta [4,5]cycloocta[1,2,3-de]naphthalen-13-yl)oxy)methyl)cyclopropyl)methyl)-4-fluoropyrrolidin-3-ol formate] | 3 to 1000 nM | < 0.3 nM
Cc1cc(N)cc(-c2nc3c4c(nc(OCC5(CN6C[C@@H](F)[C@@H](O)C6)CC5)nc4c2F)N2C[C@H]4CC[C@H](N4)[C@H]2CCO3)c1C(F)(F)F (stereo in doubt) [Example 95, cis-1-((1-((((6aR, 7S,10R)-2-(5-amino-3-methyl-2-(trifluoromethyl)phenyl)-1-fluoro-5,6,6a,7,8,9,10,11-octahydro-4-oxa-3,11a,12,14,15-pentaaza-7,10-methanocyclohepta [4,5]cycloocta[1,2,3-de]naphthalen-13-yl)oxy)methyl)cyclopropyl)methyl)-4-fluoropyrrolidin-3-ol formate] | 3 to 1000 nM | < 0.3 nM
Cc1cc(N)cc(-c2nc3c4c(nc(OCC56CCCN5CC(F)(F)C6)nc4c2F)N2C[C@H]4CC[C@H](N4)[C@H]2CCO3)c1C(F)(F)F (stereo partly drawn) [Example 1, 3-((6aR,7S,10R)-13-((2,2-difluorotetrahydro-1H-pyrrolizin-7a(5H)-yl)methoxy)-1-fluoro-5,6,6a,7,8,9,10,11-octahydro-4-oxa-3,11a,12,14,15-pentaaza-7,10-methanocyclohepta[4,5]cycloocta[1,2,3-de]naphthalen-2-yl)-5-methyl-4-(trifluoromethyl)aniline] | 3 to 1000 nM | 0.3 to 3 nM
Cc1cc(N)cc(-c2nc3c4c(nc(OCC5(C)CC(F)CN(C)C5)nc4c2F)N2C[C@H]4CC[C@H](N4)[C@H]2CCO3)c1C(F)(F)F (stereo partly drawn) [Example 5, 3-((6aR,7S,10R)-1-fluoro-13-((5-fluoro-1,3-dimethylpiperidin-3-yl)methoxy)-5,6,6a,7,8,9,10,11-octahydro-4-oxa-3,11a,12,14,15-pentaaza-7,10-methanocyclohepta[4,5]cycloocta [1,2,3-de]naphthalen-2-yl)-5-methyl-4-(trifluoromethyl)aniline] | 3 to 1000 nM | < 0.3 nM
Cc1cc(N)cc(-c2nc3c4c(nc(OCC56CC(F)CN5CC(F)C6)nc4c2F)N2C[C@H]4CC[C@H](N4)[C@H]2CCO3)c1C(F)(F)F (stereo partly drawn) [Example 6, 3-((6aR,7S,10R)-13-((2,6-difluorotetrahydro-1H-pyrrolizin-7a(5H)-yl)methoxy)-1-fluoro-5,6,6a,7,8,9,10,11-octahydro-4-oxa-3,11a,12,14,15-pentaaza-7,10-methanocyclohepta[4,5]cycloocta [1,2,3-de]naphthalen-2-yl)-5-methyl-4-(trifluoromethyl)aniline] | 3 to 1000 nM | 0.3 to 3 nM
Cc1cc(N)cc(-c2nc3c4c(nc(O[C@H]5COCC[C@@H]5N(C)C)nc4c2F)N2C[C@H]4CC[C@H](N4)[C@H]2CCO3)c1C(F)(F)F [Example 8, (3R,4S)-3-(((6aR,7S,10R)-2-(5-amino-3-methyl-2-(trifluoromethyl)phenyl)-1-fluoro-5,6,6a,7,8,9,10,11-octahydro-4-oxa-3,11a,12,14,15-pentaaza-7,10-methanocyclohepta[4,5]cycloocta [1,2,3-de]naphthalen-13-yl)oxy)-N,N-dimethyltetrahydro-2H-pyran-4-amine] | 3 to 1000 nM | 0.3 to 3 nM
Cc1cc(N)cc(-c2nc3c4c(nc(OC[C@@H]5COC[C@H]5N(C)C)nc4c2F)N2C[C@H]4CC[C@H](N4)[C@H]2CCO3)c1C(F)(F)F [Example 13, (3S,4S)-4-((((6aR,7S,10R)-2-(5-amino-3-methyl-2-(trifluoromethyl)phenyl)-1-fluoro-5,6,6a,7,8,9,10,11-octahydro-4-oxa-3,11a,12,14,15-pentaaza-7,10-methanocyclohepta[4,5]cycloocta [1,2,3-de]naphthalen-13-yl)oxy)methyl)-N,N-dimethyltetrahydrofuran-3-amine] | 3 to 1000 nM | < 0.3 nM
Cc1cc(N)cc(-c2nc3c4c(nc(OCC5(CN(C)C)CC5(F)F)nc4c2F)N2C[C@H]4CC[C@H](N4)[C@H]2CCO3)c1C(F)(F)F (stereo partly drawn) [Example 16] | 3 to 1000 nM | < 0.3 nM
Cc1cc(N)cc(-c2nc3c4c(nc(OCC5(CN6CCC6)CC5(F)F)nc4c2F)N2C[C@H]4CC[C@H](N4)[C@H]2CCO3)c1C(F)(F)F (stereo partly drawn) [Example 19, 3-((6aR,7S,10R)-13-((1-(azetidin-1-ylmethyl)-2,2-difluorocyclopropyl)methoxy)-1-fluoro-5,6,6a,7,8,9,10,11-octahydro-4-oxa-3,11a,12,14,15-pentaaza-7,10-methanocyclohepta[4,5]cycloocta[1,2,3-de]naphthalen-2-yl)-5-methyl-4-(trifluoromethyl)aniline] | 3 to 1000 nM | < 0.3 nM
Cc1cc(N)cc(-c2nc3c4c(nc(N5CC(C)(N(C)C)C5)nc4c2F)N2C[C@H]4CC[C@H](N4)[C@H]2CCO3)c1C(F)(F)F [Example 30] | 3 to 1000 nM | 0.3 to 3 nM
CN(C)C1(C)CN(c2nc3c4c(nc(-c5cc(N)cc(Cl)c5C(F)(F)F)c(F)c4n2)OCC[C@@H]2[C@@H]4CC[C@H](CN32)N4)C1 [Example 31, 1-((6aR,7S,10R)-2-(5-amino-3-chloro-2-(trifluoromethyl)phenyl)-1-fluoro-5,6,6a,7,8,9,10,11-octahydro-4-oxa-3,11a,12,14,15-pentaaza-7,10-methanocyclohepta[4,5]cycloocta [1,2,3-de]naphthalen-13-yl)-N,N,3-trimethylazetidin-3-amine] | 3 to 1000 nM | 0.3 to 3 nM
Cc1cc(N)cc(-c2nc3c4c(nc(N5CC(N(C)C)C5)nc4c2F)N2C[C@H]4CC[C@H](N4)[C@H]2CCO3)c1C(F)(F)F [Example 32, 1-((6aR,7S,10R)-2-(5-amino-3-methyl-2-(trifluoromethyl)phenyl)-1-fluoro-5,6,6a,7,8,9,10,11-octahydro-4-oxa-3,11a,12,14,15-pentaaza-7,10-methanocyclohepta[4,5]cycloocta [1,2,3-de]naphthalen-13-yl)-N,N-dimethylazetidin-3-amine] | 3 to 1000 nM | 0.3 to 3 nM
Cc1cc(N)cc(-c2nc3c4c(nc(OC[C@@]56CCCN5CC(F)(F)C6)nc4c2F)N2C[C@H]4CC[C@H](N4)[C@H]2CCO3)c1C(F)(F)F [Example 33, 3-((6aR,7S,10R)-13-(((S)-2,2-difluorotetrahydro-1H-pyrrolizin-7a(5H)-yl)methoxy)-1-fluoro-5,6,6a,7,8,9,10,11-octahydro-4-oxa-3,11a,12,14,15-pentaaza-7,10-methanocyclohepta[4,5]cycloocta [1,2,3-de]naphthalen-2-yl)-5-methyl-4-(trifluoromethyl)aniline] | 3 to 1000 nM | < 0.3 nM
